# Data reported in ChEMBL document CHEMBL3352668, “Synthesis and antibacterial evaluation of new, unsymmetrical triaryl bisamidine compounds” (Bioorg Med Chem Lett, 2014).
# Legend:
# Escherichia coli [1] = test: Antimicrobial activity against TolC-deficient Escherichia coli by CLSI method; type: functional; details: Escherichia coli; read-out: MIC
# Bacillus subtilis = test: Antimicrobial activity against Bacillus subtilis BD54 by CLSI method; type: functional
# Pseudomonas aeruginosa [2] = test: Antimicrobial activity against mexAB-oprM deficient Pseudomonas aeruginosa PAO1 harboring by CLSI method; type: functional
# Klebsiella pneumoniae = test: Antimicrobial activity against Klebsiella pneumoniae 13882 by CLSI method; type: functional
# Escherichia coli [3] = test: Antimicrobial activity against TolC+ Escherichia coli 700 by CLSI method; type: functional
# Enterococcus faecalis = test: Antimicrobial activity against vancomycin-resistant Enterococcus faecalis ATCC 51575 by CLSI method; type: functional
# Bacillus anthracis = test: Antimicrobial activity against Bacillus anthracis Sterne by CLSI method; type: functional
# Staphylococcus aureus = test: Antimicrobial activity against methicillin-resistant Staphylococcus aureus 1094 by CLSI method; type: functional
# Pseudomonas aeruginosa [4] = test: Antimicrobial activity against Pseudomonas aeruginosa PAO1 by CLSI method; type: functional
# HeLa = test: (§1) Cytotoxicity against human HeLa cells by MTS assay; type: cell-based; details: hela
# [5] = as §1; type: cell-based; details: HeLa cells
# [6] = Bacillus subtilis, BD54, read-out: MIC
# [7] = Klebsiella pneumoniae, 13882, read-out: MIC
# [8] = Escherichia coli, 700, read-out: MIC
# [9] = Enterococcus faecalis, ATCC 51575, read-out: MIC
# [10] = Bacillus anthracis, Sterne, read-out: MIC
# [11] = Staphylococcus aureus, 1094, read-out: MIC
# [12] = Pseudomonas aeruginosa, PAO1, read-out: MIC
Compound,MIC (Escherichia coli [1]),MIC (Bacillus subtilis; [6]),MIC (Pseudomonas aeruginosa [2]),MIC (Klebsiella pneumoniae; [7]),MIC (Escherichia coli [3]; [8]),MIC (Enterococcus faecalis; [9]),MIC (Bacillus anthracis; [10]),MIC (Staphylococcus aureus; [11]),MIC (Pseudomonas aeruginosa [4]; [12]),CC50 (HeLa),CC50 [5],MIC (Bacillus subtilis),MIC (Klebsiella pneumoniae),MIC (Escherichia coli [3]),MIC (Enterococcus faecalis),MIC (Bacillus anthracis),MIC (Staphylococcus aureus),MIC (Pseudomonas aeruginosa [4])
c1cc2cc(-c3ccc(-c4cc5ccc(C6=NCCN6)cc5[nH]4)cc3)[nH]c2cc1C1=NCCN1,0.16 µg/mL,0.12 µg/mL,2.5 µg/mL,0.24 µg/mL,1.25 µg/mL,0.16 µg/mL,0.31 µg/mL,0.16 µg/mL,7.5 µg/mL,32.5 µg/mL,,,,,,,,
c1cc2cc(-c3ccc(-c4nc5ccc(C6=NCCN6)cc5[nH]4)cc3)[nH]c2cc1C1=NCCN1,0.31 µg/mL,0.16 µg/mL,40 µg/mL,20 µg/mL,10 µg/mL,0.63 µg/mL,5 µg/mL,1.25 µg/mL,20 µg/mL,,8.6 µg/mL,,,,,,,
c1cc2cc(-c3ccc(-c4cn5cc(C6=NCCCN6)ccc5n4)cc3)[nH]c2cc1C1=NCCCN1,0.31 µg/mL,0.08 µg/mL,5 µg/mL,5 µg/mL,5 µg/mL,0.63 µg/mL,1.25 µg/mL,0.63 µg/mL,5 µg/mL,19.7 µg/mL,,,,,,,,
c1cc2cc(-c3ccc(-c4cn5ccc(C6=NCCCN6)cc5n4)cc3)[nH]c2cc1C1=NCCCN1,0.31 µg/mL,0.16 µg/mL,> 80 µg/mL,5 µg/mL,2.5 µg/mL,1.25 µg/mL,1.25 µg/mL,2.5 µg/mL,40 µg/mL,20.9 µg/mL,,,,,,,,
c1cc2cc(-c3ccc(-c4cc5ccc(C6=NCCCN6)cc5o4)cn3)[nH]c2cc1C1=NCCCN1,0.16 µg/mL,0.08 µg/mL,,1.56 µg/mL,1.25 µg/mL,0.39 µg/mL,0.16 µg/mL,0.31 µg/mL,1.25 µg/mL,15.6 µg/mL,,,,,,,,
CC1CNC(c2ccc3cc(-c4ccc(-c5cc6ccc(C7=NC(C)CN7)cc6o5)cc4)[nH]c3c2)=N1 (stereo in doubt; P6b),0.63 µg/mL,,80 µg/mL,,,,,,,7.6 µg/mL,,0.35 µg/mL,5 µg/mL,1.09 µg/mL,0.63 µg/mL,0.63 µg/mL,0.55 µg/mL,80 µg/mL
